Experimental findings from patent publication US20230339890A1, “AMINO ALCOHOL COMPOUNDS AND USES THEREOF” (Kineta, Inc., priority 2020, published 2023) are described below.

By IC50 is commonly meant the concentration at which inhibition is half-maximal.

The target of the test is Recombinant human CYP51A1 (lanosterol-14a-demethylase) (Homo sapiens (Human), UniProt Q16850). Nature of the test: Inhibition of CYP51A1, fluorescent substrate BOMCC. It is filed as biochemical. Conditions: recombinant human CYP51A1 coexpressed with CYP reductase in bacterial membranes, 8-point concentration-response, read-out: CYP51 IC50. The source says: Method: Recombinant human CYP51A1 (lanosterol-14a-demethylase) enzyme was coexpressed with CYP reductase in bacterial membranes and the fluorescent substrate BOMCC (a nonnatural substrate that causes increases in fluorescence upon CYP51A1-dependent demethylation) was used to obtain 8-point dose concentration-response curves for each compound.
Recombinant human CYP51A1 (lanosterol-14a-demethylase), sequence (Q16850 whole entry): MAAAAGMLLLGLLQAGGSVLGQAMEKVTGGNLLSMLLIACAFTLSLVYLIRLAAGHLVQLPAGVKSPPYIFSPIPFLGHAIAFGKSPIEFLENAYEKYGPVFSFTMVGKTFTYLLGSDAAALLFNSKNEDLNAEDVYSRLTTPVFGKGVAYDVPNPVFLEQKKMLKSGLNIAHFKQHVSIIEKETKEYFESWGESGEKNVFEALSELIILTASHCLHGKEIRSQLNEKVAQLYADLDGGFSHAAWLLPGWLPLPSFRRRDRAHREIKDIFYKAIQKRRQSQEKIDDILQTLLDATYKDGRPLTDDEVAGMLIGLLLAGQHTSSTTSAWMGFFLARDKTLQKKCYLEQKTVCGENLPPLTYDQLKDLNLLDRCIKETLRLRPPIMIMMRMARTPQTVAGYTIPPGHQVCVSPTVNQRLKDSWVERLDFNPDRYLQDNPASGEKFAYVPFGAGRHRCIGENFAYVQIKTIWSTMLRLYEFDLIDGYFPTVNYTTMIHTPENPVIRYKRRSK
Regarding `CCCN(CC(O)c1cnccn1)C(=O)Cc1ccc(C(F)(F)F)nc1` (centres unmarked) [compound 113], the IC50 is greater than 1000 nM.
Under `CCCN(CC(O)c1ccc(C(F)(F)F)nc1)C(=O)Cc1ccc(Cl)c(Cl)c1` (centres unmarked) [compound 114, 2-(3,4-dichlorophenyl)-N-[2-hydroxy-2-[6-(trifluoromethyl)-3-pyridyl]ethyl]-N-propyl-acetamide] stands greater than 1000 nM.
With `CCCN(CC(O)c1ccc(=O)[nH]c1)C(=O)Cc1ccc(Cl)c(Cl)c1` (centres unmarked) [compound 115, 2-(3,4-dichlorophenyl)-N-[2-hydroxy-2-(6-oxo-1 H-pyridin-3-yl)ethyl]-N-propyl-acetamide], the IC50 was greater than 1000 nM.
As for `CCCN(CC(O)c1cccnn1)C(=O)Cc1ccc(OC(F)(F)F)c(Cl)c1` (centres unmarked) [compound 116], the half-inhibitory concentration (IC50) lay in the range of 100 to 1000 nM.
Under `CCCN(CC(O)c1cccnc1)C(=O)C(C)c1ccc(Cl)c(Cl)c1` (centres unmarked) [compound 117, 2-(3,4-dichlorophenyl)-N-[2-hydroxy-2-(3-pyridyl)ethyl]-N-propyl-propanamide] stands greater than 1000 nM.
In the case of `CCCN(C[C@@H](O)c1cccnc1)C(=O)Cc1cccc2ncsc12` [compound 118, 2-(1,3-benzothiazol-7-yl)-N-[(2S)-2-hydroxy-2-(3-pyridyl)ethyl]-N-propyl-acetamide], the IC50 is greater than 1000 nM.
The result for `CCCN(C[C@@H](O)c1cccnc1)C(=O)Cc1ccc(C#N)c(F)c1` [compound 119, 2-(4-cyano-3-fluoro-phenyl)-N-[(2S)-2-hydroxy-2-(3-pyridyl)ethyl]-N-propyl-acetamide] reads no more than 100 nM; that for `CCCN(C[C@@H](O)c1cccnc1)C(=O)C1Cc2ccc(Cl)c(Cl)c2C1` (stereo partly drawn) [compound 120, 4,5-dichloro-N-[(2S)-2-hydroxy-2-(3-pyridyl)ethyl]-N-propyl-indane-2-carboxamide], no more than 100 nM.
For the molecule `CCCN(CC(O)c1ccc(=O)n(C)c1)C(=O)Cc1ccc(Cl)c(Cl)c1` (centres unmarked) [compound 121, 2-(3,4-dichlorophenyl)-N-[2-hydroxy-2-(1-methyl-6-oxo-3-pyridyl)ethyl]-N-propyl-acetamide], the IC50 is greater than 1000 nM.
The result for `CCCN(C(=O)Cc1ccc(Cl)c(Cl)c1)C(CO)c1ccc(=O)n(C)c1` (centres unmarked) [compound 122, 2-(3,4-dichlorophenyl)-N-[2-hydroxy-1-(1-methyl-6-oxo-3-pyridyl)ethyl]-N-propyl-acetamide] reads greater than 1000 nM; that for `CCCN(CC(O)c1cccnc1)C(=O)Cc1cccnc1` (centres unmarked) [compound 123, N-[2-hydroxy-2-(3-pyridyl)ethyl]-N-propyl-2-(3-pyridyl)acetamide], greater than 1000 nM.
Under `CCCN(C[C@@H](O)c1cccnc1)C(=O)Cc1cnc(C(F)(F)F)nc1` [compound 124, N-[(2S)-2-hydroxy-2-(3-pyridyl)ethyl]-N-propyl-2-[2-(trifluoromethyl)pyrimidin-5-yl]acetamide] stands no more than 100 nM; under `CCCN(CC(O)c1cncc(F)c1)C(=O)Cc1ccc(Cl)c(Cl)c1` (centres unmarked) [compound 126, 2-(3,4-dichlorophenyl)-N-[2-(5-fluoro-3-pyridyl)-2-hydroxyethyl]-N-propyl-acetamide], 100 to 1000 nM.
Under `CCCN(C[C@@H](O)c1cccnc1)C(=O)Cc1ccnc(C(F)(F)F)c1` [compound 127, N-[(2S)-2-hydroxy-2-(3-pyridyl)ethyl]-N-propyl-2-[2-(trifluoromethyl)-4-pyridyl]acetamide] stands greater than 1000 nM.
On to `CCCN(C[C@@H](O)c1cccnc1)C(=O)C1Cc2cnc(C(F)(F)F)cc2C1` (stereo partly drawn) [compound 128, N-[(2S)-2-hydroxy-2-(3-pyridyl)ethyl]-N-propyl-3-(trifluoromethyl)-6,7-dihydro-5H-cyclopenta[c]pyridine-6-carboxamide], for which the IC50 was no more than 100 nM.
Under `CCCN(CC(O)c1cnccn1)C(=O)C1Cc2cc(Cl)c(Cl)cc2C1` (centres unmarked) [compound 129] stands 100 to 1000 nM; under `CCCN(C[C@@H](O)c1cccnc1)C(=O)Cc1cnc(C(C)(C)C)nc1` [compound 130, 2-(2-tert-butylpyrimidin-5-yl)-N-[(2S)-2-hydroxy-2-(3-pyridyl)ethyl]-N-propyl-acetamide], no more than 100 nM.
Under `CCCN(C[C@@H](O)c1cccnc1)C(=O)C1Cc2cc(Cl)c(Br)cc2C1` (stereo partly drawn) [compound 131, 5-bromo-6-chloro-N-[(2S)-2-hydroxy-2-(3-pyridyl)ethyl]-N-propyl-indane-2-carboxamide] stands no more than 100 nM; under `CCCN(C[C@@H](O)c1cccnc1)C(=O)C(C)c1ccc(C(F)(F)F)nc1` (stereo partly drawn) [compound 132, N-[(2S)-2-hydroxy-2-(3-pyridyl)ethyl]-N-propyl-2-[6-(trifluoromethyl)-3-pyridyl]propanamide], greater than 1000 nM.
Under `CCCN(C[C@@H](O)c1cccnc1)C(=O)C1Cc2cc(C#N)c(C#N)cc2C1` [compound 133, 5,6-dicyano-N-[(2S)-2-hydroxy-2-(3-pyridyl)ethyl]-N-propyl-indane-2-carboxamide] stands 100 to 1000 nM; under `CCCN(C[C@@H](O)c1cccnc1)C(=O)C1Cc2cc(Cl)c(C#N)cc2C1` (stereo partly drawn) [compound 134, 5-chloro-6-cyano-N-[(2S)-2-hydroxy-2-(3-pyridyl)ethyl]-N-propyl-indane-2-carboxamide], no more than 100 nM; under `CCCN(C[C@@H](O)c1cccnc1)C(=O)N1Cc2cc(Cl)c(Br)cc2C1` [compound 135, 5-bromo-6-chloro-N-[(2S)-2-hydroxy-2-(3-pyridyl)ethyl]-N-propyl-isoindoline-2-carboxamide], no more than 100 nM.
`CCCN(CC(O)c1cnccc1N)C(=O)Cc1ccc(C(F)(F)F)nc1` (centres unmarked) [compound 136, N-[2-(4-amino-3-pyridyl)-2-hydroxyethyl]-N-propyl-2-[6-(trifluoromethyl)-3-pyridyl]acetamide]: the 50% inhibitory concentration (IC50) was no more than 100 nM.
The result for `CC(C)(C)OC(=O)N(CCc1ccc2ccccc2c1)CC(O)c1cccnc1` (centres unmarked) [compound 137, Tert-butyl N-[2-hydroxy-2-(3-pyridyl)ethyl]-N-[2-(2-naphthyl)ethyl]carba mate] reads no more than 100 nM; that for `CC(C)(C)OC(=O)N(CCc1ccc(Cl)c(Cl)c1)CC(O)c1cccnc1` (centres unmarked) [compound 138, Tert-butyl N-[2-(3,4-dichlorophenyl)ethyl] -N-[2-hydroxy-2-(3-pyridyl)ethyl]carbam ate], 100 to 1000 nM; that for `CC(C)(C)OC(=O)NCCCCCN(CC(O)c1cccnc1)C(=O)Cc1ccc(Cl)c(Cl)c1` (centres unmarked) [compound 139, tert-butyl N-[5-[[2-(3,4-dichlorophenyl)acetyl]-[2-hydroxy-2-(3-pyridyl)ethyl]amino]pentyl]carbamate], no more than 100 nM.
Under `CC(C)(C)OC(=O)NCCCN(C[C@@H](O)c1cccnc1)C(=O)Cc1ccc(C(F)(F)F)nc1` [compound 140, tert-butyl N-[3-[[(2S)-2-hydroxy-2-(3-pyridyl)ethyl]-[2-[6-(trifluoromethyl)-3-pyridyl]acetyl]amino]propyl]carbamate] stands no more than 100 nM; under `CC(C)(C)OC(=O)NCCCCCN(C[C@@H](O)c1cccnc1)C(=O)Cc1ccc(C(F)(F)F)nc1` [compound 141, tert-butyl N-[5-[[(2S)-2-hydroxy-2-(3-pyridyl)ethyl]-[2-[6-(trifluoromethyl)-3-pyridyl]acetyl]amino]pentyl]carbamate], no more than 100 nM; under `CC(C)(C)OC(=O)NCCN(C[C@@H](O)c1cccnc1)C(=O)Cc1ccc(C(F)(F)F)nc1` [compound 143, tert-butyl N-[2-[[(2S)-2-hydroxy-2-(3-pyridyl)ethyl]-[2-[6-(trifluoromethyl)-3-pyridyl]acetyl]amino]ethyl]carbamate], no more than 100 nM.
The result for `CC(C)(C)OC(=O)NC1CCC(CN(C[C@@H](O)c2cccnc2)C(=O)Cc2ccc(C(F)(F)F)nc2)CC1` (stereo partly drawn) [compound 145, tert-butyl N-[4-[[[(2S)-2-hydroxy-2-(3-pyridyl)ethyl]-[2-[6-(trifluoromethyl)-3-pyridyl]acetyl]amino]methyl]cyclohexyl] carbamate] reads 100 to 1000 nM; that for `CC(C)(C)OC(=O)NC1CCC(CN(C[C@@H](O)c2cccnc2)C(=O)Cc2ccc(C(F)(F)F)nc2)CC1` (stereo partly drawn) [compound 146, tert-butyl N-[4-[[[(2S)-2-hydroxy-2-(3-pyridyl)ethyl]-[2-[6-(trifluoromethyl)-3-pyridyl]acetyl]amino]methyl]cyclohexyl] carbamate], no more than 100 nM.
Regarding `CCCN(C[C@H](O)c1cccnc1)C(=O)Cc1ccc2ccccc2c1` [compound 147, N-[(2R)-2-hydroxy-2-(3-pyridyl)ethyl]-2-(2-naphthyl)-N-propyl-acetamide], the IC50 was no more than 100 nM.
